# Assay results taken from patent US12714680B2, “Composition for anti-aging or skin regeneration comprising Okanin” (POSCO CO., LTD, priority 2020, dated 2026).
# Experiments:
# Type in all cases: cell-based
# EGFR = EGFR (Homo sapiens, UniProt P00533); assay: EGFR activity measurement biosensor system (EGFP-SH2 fluorescence signals); settings: 100 μM Okanin; cells cultured in serum-free medium 24 hours; compared to DMSO control; FIG. 1
# Method: In addition, by using the feature that, when the activities of the EGFR continue to be maintained, the EGFR is internalized into the cell, the cell of the biosensor system that may measure the activities of the EGFR was used in the present experimentation (see Korean Laid-open Patent Publication No. 2019-0014340). […] After culturing the cells in a serum-free medium for 24 hours, the cells were treated with Okanin.
# HaCaT cells [1] = assay: Cytotoxicity depending on the concentrations of Okanin (cell viability)
# Method: The cytotoxicity of Okanin was measured using HaCaT cells as keratinocytes. When cells are treated with MTT tetrazolium which is a yellow water-soluble substrate, such a substrate is reduced to MTT formazan by mitochondrial enzymes, and the color changes to blue-purple. That is, since the blue-violet color appears darker as the number of living cells increases, the blue-violet absorbance at a wavelength of 540 nm reflects the concentration of living cells. Specifically, after culturing cells to fill each well of a 96-well plate, the cells were treated with Okanin at concentrations of 0, 10, 25, 50 and 100 μM, and cultured for 24 hours and 48 hours in a 5% CO2 incubator at 37° C. Thereafter, cell viability was measured using MIT reagent. A control group not treated with Okanin (0 μM) was treated with the same amount of the solvent DMSO.
# ERK = assay: Activation (phosphorylation) of ERK by Western blotting in HaCaT cells; settings: serum-free medium, FIG. 3
# Method: (§1) It is well known that the activities of extracellular signal-regulated kinase (ERK) and protein kinase B (AKT) transmit signals necessary for cell growth and survival by the activities of an EGFR. In addition, in Experimental Example 1, it was observed that Okanin generated signals due to activation of the EGFR in the cells of the biosense system for measuring the activities of the EGFR. Accordingly, it was measured whether the activities of the EGFR were induced by Okanin to the activities of the ERK and AKT. Specifically, HaCaT cells were cultured in a serum-free medium, treated with 10 μM. of Okanin for 10 minutes, 30 minutes and 60 minutes, respectively, and, thereafter, phosphorylated and activated ERK and AKT were analyzed by Western blotting. As antibodies, a phosphorylation antibody as a marker of activated ERK and AKT, and a general antibody for measuring all of them were used, respectively.
# AKT = assay: Activation (phosphorylation) of AKT by Western blotting in HaCaT cells; settings: serum-free medium, FIG. 3
# Method: as §1
# egr1 = assay: Gene expression change by real-time quantitative PCR in HaCaT cells: egr1; settings: 10 μM Okanin, 1 hour, serum-free, corrected with β-actin, FIG. 4
# Source text: (§2) Signaling by an EGFR induces the expression of genes important for cell growth and survival through important signaling mediator proteins such as ERK and AKT. The egr1, c-myc, c-jun and c-fos genes are regulated by the EGFR and are well known as genes that promote cell growth and survival. […] Specifically, Tri-reagent was used for mRNA extraction, cDNA was created by a reverse transcription polymerase chain reaction (RT-PCR) using a poly-A primer and a reverse transcriptase, and real-time quantitative PCR was used to measure the amount of each mRNA. The amount of each mRNA was corrected with the amount of β-actin, which is a constitutive gene.
# c-myc = assay: Gene expression change by real-time quantitative PCR in HaCaT cells: c-myc; settings: 10 μM Okanin, 1 hour, serum-free, corrected with β-actin, FIG. 4
# Source text: as §2
# c-jun = assay: Gene expression change by real-time quantitative PCR in HaCaT cells: c-jun; settings: 10 μM Okanin, 1 hour, serum-free, corrected with β-actin, FIG. 4
# Source text: as §2
# c-fos = assay: Gene expression change by real-time quantitative PCR in HaCaT cells: c-fos; settings: 10 μM Okanin, 1 hour, serum-free, corrected with β-actin, FIG. 4
# Source text: as §2
# HaCaT cells [2] = assay: Growth and proliferation of keratinocytes (CCK-8 assay); settings: 24 hours, serum-free, vs negative control (DMSO), p<0.05, FIG. 5
# Method: Cell counting kit-8 (CCK-8) is a water-soluble tetrazolium salt reagent called WST-8 and forms orange-colored water-soluble Formazan by dehydrogenase in the mitochondria of living cells. […] After cultured for 24 hours, the cells were treated with CCK8, and the cell growth was analyzed by measuring absorbance at 450 nm.
# HaCaT cells [3] = assay: Wound healing assay; settings: 1 μM Okanin, culture for 6 days, serum-free; vs negative control; significant difference from the 3rd day (p<0.05); FIGS. 6A, 6B
# Method: The cell growth promoting effect of Okanin was confirmed through Wound healing assay. Specifically, after fully culturing HaCaT cells in a 12-well plate, cells on a certain area were scraped off using a yellow tip to form a wound area, changed to a serum-free medium, and treated with 1 μM of Okanin.
# HaCaT cells [4] = assay: Resistance to cell damage induced by UVB (cell viability, CCK-8); settings: 1 μM Okanin, UVB 500 mJ/cm2, serum-free, negative control about 40%, p<0.05, FIG. 7
# Method: Among the ultraviolet wavelengths, UVB wavelengths corresponding to 280 to 315 nm penetrate the epidermal layer where many keratinocytes exist to cause cell damage. […] The solvent DMSO was used as a negative control group, and the cell viability was measured using the CCK-8 method used in Experimental Example 5.
# Chain of EGFR (P00533 25-1210, species assumed): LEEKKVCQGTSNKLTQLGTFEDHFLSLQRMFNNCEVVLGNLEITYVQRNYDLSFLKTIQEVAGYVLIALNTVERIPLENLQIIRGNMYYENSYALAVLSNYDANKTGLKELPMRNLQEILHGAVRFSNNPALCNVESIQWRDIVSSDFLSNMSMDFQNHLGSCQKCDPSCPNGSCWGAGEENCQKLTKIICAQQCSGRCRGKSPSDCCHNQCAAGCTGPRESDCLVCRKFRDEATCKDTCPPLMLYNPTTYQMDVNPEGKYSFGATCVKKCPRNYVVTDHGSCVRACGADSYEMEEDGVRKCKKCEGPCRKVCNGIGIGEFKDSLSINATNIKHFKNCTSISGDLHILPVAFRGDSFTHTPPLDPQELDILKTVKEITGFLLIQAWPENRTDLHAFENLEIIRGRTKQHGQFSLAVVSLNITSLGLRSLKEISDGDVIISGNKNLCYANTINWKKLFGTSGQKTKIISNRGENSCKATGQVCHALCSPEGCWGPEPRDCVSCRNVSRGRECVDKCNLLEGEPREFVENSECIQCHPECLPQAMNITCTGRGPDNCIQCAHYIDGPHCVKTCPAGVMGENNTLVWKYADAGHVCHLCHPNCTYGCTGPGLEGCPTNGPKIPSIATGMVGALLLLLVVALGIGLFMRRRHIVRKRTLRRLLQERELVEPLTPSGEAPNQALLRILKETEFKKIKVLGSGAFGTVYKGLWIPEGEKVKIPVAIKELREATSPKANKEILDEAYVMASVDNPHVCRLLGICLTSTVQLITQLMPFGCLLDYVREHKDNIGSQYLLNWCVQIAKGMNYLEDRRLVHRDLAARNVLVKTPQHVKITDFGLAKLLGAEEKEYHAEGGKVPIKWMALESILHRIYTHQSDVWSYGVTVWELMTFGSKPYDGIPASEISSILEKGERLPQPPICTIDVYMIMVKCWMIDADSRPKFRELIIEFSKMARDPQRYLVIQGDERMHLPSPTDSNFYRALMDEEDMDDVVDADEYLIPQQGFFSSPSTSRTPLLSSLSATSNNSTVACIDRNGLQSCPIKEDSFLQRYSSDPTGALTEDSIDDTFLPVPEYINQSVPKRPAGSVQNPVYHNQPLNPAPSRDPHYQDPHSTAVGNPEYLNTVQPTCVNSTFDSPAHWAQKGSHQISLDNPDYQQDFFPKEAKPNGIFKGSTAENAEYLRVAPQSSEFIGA
structure (smiles),measurement,setting,value
"O=C(/C=C/c1ccc(O)c(O)c1)c1ccc(O)c(O)c1O [Okanin, 2′,3,3′,4,4′-pentahydroxychalcone]",EGFR activation (fluorescence signals of biosensor cells),EGFR,activated
same,cytotoxicity,"HaCaT cells [1]; 25 μM, cultured 24 hours and 48 hours, FIG. 2",some cytotoxicity
same,cytotoxicity,"HaCaT cells [1]; 50 μm, cultured 24 hours and 48 hours, FIG. 2",some cytotoxicity
same,cytotoxicity,HaCaT cells [1]; concentration of 10 μM or less,free of cytotoxicity
same,induction of the activities of ERK,ERK; 10 μM Okanin for 10 minutes,sufficiently induced
same,time within which ERK was rapidly activated,ERK; 10 μM Okanin,≤ 30 min
same,induction of the activities of AKT,AKT; 10 μM Okanin for 10 minutes,sufficiently induced
same,time within which AKT was rapidly activated,AKT; 10 μM Okanin,≤ 30 min
same,egr1 mRNA,egr1,increased
same,c-myc mRNA,c-myc,increased
same,c-jun mRNA,c-jun,increased
same,c-fos mRNA,c-fos,increased
same,growth and proliferation of cells,HaCaT cells [2]; 100 nM Okanin,significantly increased
same,growth and proliferation of cells,HaCaT cells [2]; 1 μM Okanin,significantly increased
same,growth and proliferation of cells,HaCaT cells [2]; 10 μM Okanin,significantly increased
same,filling of the wound area,HaCaT cells [3],more quickly filled
same,cells survived after UVB,HaCaT cells [4],about 60%
